Assay results published in patent US20240300934A1, “COMPOUNDS FOR MODULATING MYCOBACTERIUM TUBERCULOSIS RESPONSE” (priority 2021, published 2024).
In brackets after ≈: the same amount, converted by molar mass. Marks after values point to notes of the source that are not given here.

Key:
[1] = test system: rv2390c′::GFP reporter Mtb strain; format: cell-based, Mycobacterium tuberculosis; settings: for rv2390c′::GFP Cl− response phenotype: compared to C6
Mtb in J774 cells = test: Mtb growth in J774 macrophage-like cells (mKO fluorescence); format: cell-based, Mycobacterium tuberculosis; settings: for Inhibition of Mtb growth in J774 cells phenotype: compared to C6; for % Reduction of Intracellular Infection (J774.1 cells) at 10 μM cmpd: 10 μM compound
Description: For the tertiary screen of selected hit compounds in J774 murine macrophage-like cells, 30,000 J774 cells/well were seeded in bar-coded 384-well black, clear bottom plates in a 30 μl volume in J774 infection media (DMEM+10% FBS+1 mM sodium pyruvate+2 mM L-glutamine) using a ThermoFisher Multidrop Combi reagent dispenser, one day prior to assay start. On the day of the assay, log-phase Mtb constitutively expressing mKO were pelleted and resuspended in 1 ml basal uptake buffer (0.5% bovine serum albumin+25 mM dextrose+0.5 mM MgCl2+1 mM CaCl2+0.1% gelatin in phosphate buffered saline (PBS), passed 6× though a tuberculin syringe with a 25 G×5/8″ needle, then resuspended in J774 infection media to a final OD600=0.2. 10 μl of this bacterial suspension was added to each well of the 384-well plates containing the J774 cells, followed by addition of 10 μl of the appropriate compounds (pre-aliquoted in v-bottom plates in a 1:1 mix of PBS:J774 infection media). Addition of Mtb and compounds were conducted using a Janus Ministation. For each test plate, two columns of controls (16 wells each) were included, with one column consisting of treatment with DMSO as a carrier control (negative control), and the other column consisting of treatment with 5 μM rifampicin (positive control). This tertiary assay was done as a dose-response assay in duplicate runs, with compounds tested beginning at a final concentration of 20 μM and two-fold dilutions down to 0.039 μM. Plates were kept in humidified ziplock bags in a 37° C., 5% CO2 incubator. 6 days post-infection, mKO fluorescence signal was read using a PerkinElmer EnVision multimode plate reader (bottom read filter, excitation 530/8 nm, Bodipy TMR D555 single mirror, emission 579/25 nm). mKO fluorescence in DMSO-treated control samples were defined as 100% growth, and fluorescence observed in treatment conditions calculated as a percentage from that set value.
For J774 infection in 96-well plates, 180,000 J774 cells were seeded per well in 180 μl of J774 infection media one day prior to infection. On the day of the assay, log-phase Mtb constitutively expressing mKO were pelleted and resuspended in 1 ml basal uptake buffer, passed 6× though a tuberculin syringe with a 25 G×5/8″ needle, then resuspended in J774 infection media to a final OD600=0.2. Media was removed from 96-well plate containing the J774 cells, with 140 μl of fresh J774 infection media added back to each well. 40 μl of the Mtb suspension at OD600=0.2 was added to each well, followed by addition of appropriate concentration of compound or DMSO in a 20 μl final volume in J774 infection media (compound final concentration 10 μM, rifampicin final concentration 5 μM, DMSO final concentration 0.1%/well). Bacterial mKO fluorescence was read immediately after infection using a Biotek Synergy Neo2 microplate reader (bottom read monochromator, excitation 543/10 nm, emission 565/10 nm), and again 6 days post-infection. Plates were kept in humidified ziplock bags in a 37° C., 5% CO2 incubator. mKO fluorescence in DMSO-treated control samples were defined as 100% growth, and fluorescence observed in treatment conditions calculated as a percentage from that set value.

[2] = Kinetic aqueous solubility in pH 7.4 PBS; format: physicochemical; settings: PBS, pH 7.4, aqueous buffer, kinetic from dmso stock; Table 2; read-out: Kinetic Aqueous Solubility S
Description: (§1) Assays examining mouse and human liver microsomal stability, kinetic aqueous solubility, mouse and human plasma protein binding and stability, and human cytochrome P450 inhibition characteristics of the compounds were run by BioDuro, Incorporated, using standard protocols as previously described (Wang et al, 2020). hERG inhibition assays were also performed by BioDuro, Incorporated.

[3] = Mouse liver microsomal stability; format: in vitro ADME; settings: mouse liver microsomes; read-out: MLM t1/2
Description: as §1

[4] = Mouse pharmacokinetics, single oral dose; format: in vivo, CD-1 mice; settings: female, single 25 mg/kg po dose; for Kp at 5 h: CD-1, mouse, lung vs plasma, read-out: Mouse PK Clung/Cplasma at t = 5 h; for AUC(0-t): mouse, plasma, CD-1 mice, read-out: Mouse PK AUC0-5h
Description: Blood samples were collected in K2EDTA coated tubes pre-dose, 0.5, 1, 3 and 5 hrs post-dose, placed on ice, and centrifuged to recover plasma. The recovered plasma was kept at −80° C. as needed prior to analysis, which was performed as previously described (Wang et al, 2020). In brief, a Sciex Applied Biosystems Qtrap 4000 triple-quadrupole mass spectrometer coupled to an Agilent 1260 HPLC system was used for HPLC coupled to tandem mass spectrometry (LC-MS/MS) quantitative analysis of the samples, with chromatography attained using an Agilent Zorbax SB-C8 column (2.1×30 mm; particle size, 3.5 μm) and a reverse phase gradient elution. The aqueous mobile phase consisted of Milli-Q deionized water with 0.1% formic acid (A), while the organic mobile phase was 0.1% formic acid in acetonitrile (B). The gradient set-up was as follows: 5-90% B over 2 mins, 1 min at 90% B, then an immediate drop to 5% B and an additional 1 min at 5% B. Quantification of molecules was carried out via multiple-reaction monitoring of parent/daughter transitions in electrospray positive-ionization mode, and sample analyses accepted if quality control and standard samples had concentrations within 20% of the nominal concentration. Preparation of compounds for generation of standard curves and quality control spiking solutions were performed as previously described (Wang et al, 2020). Data were processed using Analyst software (Version 1.6.2; Applied Biosystems Sciex).

Mtb = Mtb growth assay in cholesterol media (OD600); format: cell-based, Mycobacterium tuberculosis

CCSc1ncc(CN2CCN(c3nc4cccc(Cl)c4o3)CC2)cn1 [JSF-4603, 7-chloro-2-(4-((2-(ethylthio)pyrimidin-5-yl)methyl)piperazin-1-yl)benzo[d]oxazole]
rv2390c′::GFP Cl− response phenotype [1]: Y | Inhibition of Mtb growth in J774 cells phenotype (Mtb in J774 cells): Y

CCSc1ncc(CN2CCN(c3nc4c(F)cccc4o3)CC2)cn1 [JSF-4602, 2-(4-((2-(ethylthio)pyrimidin-5-yl)methyl)piperazin-1-yl)-4-fluorobenzo[d]oxazole]
rv2390c′::GFP Cl− response phenotype [1]: Y | Inhibition of Mtb growth in J774 cells phenotype (Mtb in J774 cells): Y

CCSc1ncc(CN2CCN(c3nc4cc(F)c(F)cc4o3)CC2)cn1 [JSF-4525, 2-(4-((2-(ethylthio)pyrimidin-5-yl)methyl)piperazin-1-yl)-5,6-difluorobenzo[d]oxazole]
solubility kinetic [2]: 0.952 µM (≈ 0.373 µg/mL) | half-life [3]: 39.8 min | rv2390c′::GFP Cl− response phenotype [1]: Y | % Reduction of Intracellular Infection (J774.1 cells) at 10 μM cmpd (Mtb in J774 cells): 46.3 ± 2.9^b % | Inhibition of Mtb growth in J774 cells phenotype (Mtb in J774 cells): Y | Kp at 5 h [4]: 0.33 | AUC(0-t) [4]: 29700 ng·h/mL

CCSc1ncc(CN2CCN(c3nc4ccc(C(F)(F)F)cc4o3)CC2)cn1 [JSF-4507, 2-(4-((2-(ethylthio)pyrimidin-5-yl)methyl)piperazin-1-yl)-6-(trifluoromethyl)benzo[d]oxazole]
rv2390c′::GFP Cl− response phenotype [1]: Y | Inhibition of Mtb growth in J774 cells phenotype (Mtb in J774 cells): Y

CCSc1ncc(CN2CCN(c3nc4ccc(F)cc4o3)CC2)cn1 [JSF-4509, 2-(4-((2-(ethylthio)pyrimidin-5-yl)methyl)piperazin-1-yl)-6-fluorobenzo[d]oxazole]
rv2390c′::GFP Cl− response phenotype [1]: Y

CCSc1ncc(CN2CCN(c3nc4cc(Cl)ccc4o3)CC2)cn1 [JSF-4477, 5-chloro-2-(4-((2-(ethylthio)pyrimidin-5-yl)methyl)piperazin-1-yl)benzo[d]oxazole]
rv2390c′::GFP Cl− response phenotype [1]: Y

CCSc1ncc(CN2CCN(c3nc4cc(C)ccc4o3)CC2)cn1 [JSF-4471, 2-(4-((2-(ethylthio)pyrimidin-5-yl)methyl)piperazin-1-yl)-5-methylbenzo[d]oxazole]
rv2390c′::GFP Cl− response phenotype [1]: Y | Inhibition of Mtb growth in J774 cells phenotype (Mtb in J774 cells): Y

CCSc1ncc(CN2CCN(c3nc4cc(OC)ccc4o3)CC2)cn1 [JSF-4528, 2-(4-((2-(ethylthio)pyrimidin-5-yl)methyl)piperazin-1-yl)-5-methoxybenzo[d]oxazole]
rv2390c′::GFP Cl− response phenotype [1]: N

CCSc1ncc(C(=O)N2CCN(c3nc4ccccc4o3)CC2)cn1 [JSF-4683, (4-(benzo[d]oxazol-2-yl)piperazin-1-yl)(2-(ethylthio)pyrimidin-5-yl)methanone]
rv2390c′::GFP Cl− response phenotype [1]: N

CCSc1ncc(CN2CCN(c3nc4ccc(C)cc4o3)CC2)cn1 [JSF-4527, 2-(4-((2-(ethylthio)pyrimidin-5-yl)methyl)piperazin-1-yl)-6-methylbenzo[d]oxazole]
solubility kinetic [2]: 13.7 µM (≈ 5.06 µg/mL) | half-life [3]: 38.7 min | rv2390c′::GFP Cl− response phenotype [1]: Y | % Reduction of Intracellular Infection (J774.1 cells) at 10 μM cmpd (Mtb in J774 cells): 53.8 ± 2.1% | Inhibition of Mtb growth in J774 cells phenotype (Mtb in J774 cells): Y | Kp at 5 h [4]: 0.55 | AUC(0-t) [4]: 16300 ng·h/mL

CCSc1ncc(CN2CCN(c3nc4cccc(C)c4o3)CC2)cn1 [JSF-4562, 2-(4-((2-(ethylthio)pyrimidin-5-yl)methyl)piperazin-1-yl)-7-methylbenzo[d]oxazole]
rv2390c′::GFP Cl− response phenotype [1]: Y | Inhibition of Mtb growth in J774 cells phenotype (Mtb in J774 cells): Y

CCSc1ncc(CN2CCN(c3nc4c(C)cccc4o3)CC2)cn1 [JSF-4551, 2-(4-((2-(ethylthio)pyrimidin-5-yl)methyl)piperazin-1-yl)-4-methylbenzo[d]oxazole]
rv2390c′::GFP Cl− response phenotype [1]: Y | Inhibition of Mtb growth in J774 cells phenotype (Mtb in J774 cells): Y

CCSc1ncc(CN2CCN(c3ncco3)CC2)cn1 [JSF-4747, 2-(4-((2-(ethylthio)pyrimidin-5-yl)methyl)piperazin-1-yl)oxazole]
rv2390c′::GFP Cl− response phenotype [1]: Y

CSc1ncc(CN2CCN(c3nc4ccccc4o3)CC2)cn1 [JSF-4730, 2-(4-((2-(methylthio)pyrimidin-5-yl)methyl)piperazin-1-yl)benzo[d]oxazole]
rv2390c′::GFP Cl− response phenotype [1]: Y | Inhibition of Mtb growth in J774 cells phenotype (Mtb in J774 cells): Y

CCSc1ncc(CN2CCN(c3nc4ccc(Cl)cc4o3)CC2)cn1 [JSF-4467, 6-chloro-2-(4-((2-(ethylthio)pyrimidin-5-yl)methyl)piperazin-1-yl)benzo[d]oxazole]
solubility kinetic [2]: 8.3 µM (≈ 3.24 µg/mL) | half-life [3]: 54.3 min | rv2390c′::GFP Cl− response phenotype [1]: Y | % Reduction of Intracellular Infection (J774.1 cells) at 10 μM cmpd (Mtb in J774 cells): 50.6 ± 2.0% | Inhibition of Mtb growth in J774 cells phenotype (Mtb in J774 cells): Y | Kp at 5 h [4]: 0.36 | AUC(0-t) [4]: 41700 ng·h/mL

CCSc1ncc(CNCCNc2nc3ccccc3o2)cn1 [JSF-4547, N^1-(benzo[d]oxazol-2-yl)-N^2-((2-(ethylthio)pyrimidin-5-yl)methyl)ethane-1,2-diamine]
rv2390c′::GFP Cl− response phenotype [1]: N | Inhibition of Mtb growth in J774 cells phenotype (Mtb in J774 cells): N

CCSc1ncc(CN2CCN(c3nc4cccc(F)c4o3)CC2)cn1 [JSF-4516, 2-(4-((2-(ethylthio)pyrimidin-5-yl)methyl)piperazin-1-yl)-7-fluorobenzo[d]oxazole]
rv2390c′::GFP Cl− response phenotype [1]: N | Inhibition of Mtb growth in J774 cells phenotype (Mtb in J774 cells): Y

CCSc1ncc(CN2CCN(c3nc4c(Cl)cccc4o3)CC2)cn1 [JSF-4604, 4-chloro-2-(4-((2-(ethylthio)pyrimidin-5-yl)methyl)piperazin-1-yl)benzo[d]oxazole]
rv2390c′::GFP Cl− response phenotype [1]: Y | Inhibition of Mtb growth in J774 cells phenotype (Mtb in J774 cells): Y

CCSc1ncc(CN2CCN(c3nc4ccccc4s3)CC2)cn1 [JSF-4298, 2-(4-((2-(ethylthio)pyrimidin-5-yl)methyl)piperazin-1-yl)benzo[d]thiazole]
Mtb growth in cholesterol media (in words) (Mtb; 10 μM, OD600): continuing to demonstrate the phenotypes seen with the parental C6 compound | Growth inhibition in cholesterol media phenotype (Mtb; compared to C6): Y | rv2390c′::GFP reporter signal upon Mtb exposure to high [Cl−] (in words) ([1]; 10 μM, 250 mM NaCl): continuing to demonstrate the phenotypes seen with the parental C6 compound | rv2390c′::GFP Cl− response phenotype [1]: Y | Mtb growth in J774 cells (in words) (Mtb in J774 cells; 10 μM, 6 days post-infection): continuing to demonstrate the phenotypes seen with the parental C6 compound

CCSc1ncc(CN2CCN(c3nc4cccc(C(F)(F)F)c4o3)CC2)cn1 [JSF-4601, 2-(4-((2-(ethylthio)pyrimidin-5-yl)methyl)piperazin-1-yl)-7-(trifluoromethyl)benzo[d]oxazole]
rv2390c′::GFP Cl− response phenotype [1]: Y
